#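 The compound was tested at five concentrations on cells cultured in 96-well plates, with a 48-hour exposure period. Abbreviation: GI50, concentration required for 50% inhibition of growth. Definition used: TGI = concentration required for complete inhibition of growth.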
# What was measured:
# Test in all cases: DTP human tumour cell line panel, 48 h
# [1] = system: UACC-257 melanoma
# [2] = system: UACC-62 melanoma
# [3] = system: HOP-92 NSCLC
# [4] = system: RPMI-8226 leukemia
# [5] = system: MOLT-4 leukemia
# [6] = system: SK-OV-3 ovarian
# [7] = system: HT29 colon
# [8] = system: MDA-MB-231 breast
# [9] = system: IGROV1 ovarian
# [10] = system: OVCAR-3 ovarian
# [11] = system: SK-MEL-2 melanoma
# [12] = system: TK-10 renal
# [13] = system: 786-0 renal
# [14] = system: HCT-116 colon
# [15] = system: SK-MEL-5 melanoma
# [16] = system: SK-MEL-28 melanoma
# [17] = system: EKVX NSCLC
# [18] = system: K-562 leukemia
# [19] = system: SF-268 CNS
# [20] = system: ACHN renal
# [21] = system: NCI-H460 lung
# [22] = system: T-47D breast
# [23] = system: CAKI-1 renal
# [24] = system: SNB-75 CNS
# [25] = system: A549 NSCLC
# [26] = system: MCF7 breast
# [27] = system: COLO 205 colon
# [28] = system: NCI-H522 lung
# [29] = system: OVCAR-5 ovarian
# [30] = system: SF-539 CNS
# [31] = system: HOP-62 NSCLC
# [32] = system: MDA-MB-435
# [33] = system: SNB-19 CNS
# [34] = system: HS 578T breast
# [35] = system: OVCAR-4 ovarian
# [36] = system: SW-620 colon
# [37] = system: U251 CNS
# [38] = system: HL-60(TB) leukemia
# [39] = system: UO-31 renal
# [40] = system: SR leukemia
# [41] = system: HCC-2998 colon
# [42] = system: DU-145 prostate
# [43] = system: OVCAR-8 ovarian
# [44] = system: LOX IMVI melanoma
# [45] = system: HCT-15 colon
# [46] = system: RXF 393 renal
# [47] = system: BT-549 breast
# [48] = system: KM12 colon
# [49] = system: NCI-H226 lung
# [50] = system: NCI/ADR-RES ovarian
# [51] = system: PC-3 prostate
# [52] = system: SN12C renal
# [53] = system: SF-295 CNS
# [54] = system: A498 renal
# [55] = system: CCRF-CEM leukemia
# [56] = system: M14 melanoma
# [57] = system: MALME-3M melanoma
# [58] = system: NCI-H23 lung
structure (smiles),measurement,setting,value
CN1C(=O)N(c2ccccc2)C2N=C(N/N=C/c3ccccc3)SC21 (stereo unspecified),GI50,[1],28.7 µM
same,TGI,[1],> 100 µM
same,GI50,[2],0.577 µM
same,TGI,[2],> 100 µM
same,GI50,[3],0.648 µM
same,TGI,[3],> 100 µM
same,GI50,[4],3.24 µM
same,TGI,[4],> 100 µM
same,GI50,[5],2.38 µM
same,TGI,[5],> 100 µM
same,GI50,[6],2.82 µM
same,TGI,[6],> 100 µM
same,GI50,[7],0.935 µM
same,TGI,[7],8.04 µM
same,GI50,[8],3.62 µM
same,TGI,[8],82.6 µM
same,GI50,[9],3.86 µM
same,TGI,[9],> 100 µM
same,GI50,[10],0.556 µM
same,TGI,[10],> 100 µM
same,GI50,[11],1.1 µM
same,TGI,[11],> 100 µM
same,GI50,[12],> 100 µM
same,TGI,[12],> 100 µM
same,GI50,[13],4.21 µM
same,TGI,[13],> 100 µM
same,GI50,[14],0.71 µM
same,TGI,[14],> 100 µM
same,GI50,[15],6.05 µM
same,TGI,[15],67.5 µM
same,GI50,[16],16.8 µM
same,TGI,[16],> 100 µM
same,GI50,[17],3.73 µM
same,TGI,[17],> 100 µM
same,GI50,[18],0.447 µM
same,TGI,[18],> 100 µM
same,GI50,[19],5.49 µM
same,TGI,[19],> 100 µM
same,GI50,[20],5.19 µM
same,TGI,[20],> 100 µM
same,GI50,[21],1.04 µM
same,TGI,[21],19.9 µM
same,GI50,[22],2.93 µM
same,TGI,[22],> 100 µM
same,GI50,[23],0.685 µM
same,TGI,[23],> 100 µM
same,GI50,[24],0.363 µM
same,TGI,[24],7.7 µM
same,GI50,[25],2.48 µM
same,TGI,[25],> 100 µM
same,GI50,[26],0.456 µM
same,TGI,[26],> 100 µM
same,GI50,[27],1.52 µM
same,TGI,[27],5.16 µM
same,GI50,[28],0.304 µM
same,TGI,[28],1.58 µM
same,GI50,[29],4.22 µM
same,TGI,[29],> 100 µM
same,GI50,[30],1.34 µM
same,TGI,[30],7.91 µM
same,GI50,[31],2.5 µM
same,TGI,[31],> 100 µM
same,GI50,[32],0.203 µM
same,TGI,[32],0.508 µM
same,GI50,[33],3.77 µM
same,TGI,[33],> 100 µM
same,GI50,[34],1.7 µM
same,TGI,[34],> 100 µM
same,GI50,[35],14.5 µM
same,TGI,[35],> 100 µM
same,GI50,[36],0.659 µM
same,TGI,[36],> 100 µM
same,GI50,[37],1.83 µM
same,TGI,[37],> 100 µM
same,GI50,[38],0.452 µM
same,TGI,[38],6.58 µM
same,GI50,[39],3.18 µM
same,TGI,[39],> 100 µM
same,GI50,[40],0.38 µM
same,TGI,[40],> 100 µM
same,GI50,[41],2.25 µM
same,TGI,[41],53.2 µM
same,GI50,[42],3.61 µM
same,TGI,[42],> 100 µM
same,GI50,[43],3.56 µM
same,TGI,[43],> 100 µM
same,GI50,[44],0.931 µM
same,TGI,[44],> 100 µM
same,GI50,[45],0.553 µM
same,TGI,[45],> 100 µM
same,GI50,[46],0.873 µM
same,TGI,[46],3.16 µM
same,GI50,[47],0.885 µM
same,TGI,[47],13.7 µM
same,GI50,[48],0.819 µM
same,TGI,[48],> 100 µM
same,GI50,[49],2.28 µM
same,TGI,[49],66.6 µM
same,GI50,[50],1.05 µM
same,TGI,[50],> 100 µM
same,GI50,[51],1.59 µM
same,TGI,[51],> 100 µM
same,GI50,[52],4.46 µM
same,TGI,[52],> 100 µM
same,GI50,[53],0.622 µM
same,TGI,[53],> 100 µM
same,GI50,[54],> 100 µM
same,TGI,[54],> 100 µM
same,GI50,[55],1.93 µM
same,TGI,[55],> 100 µM
CN(C)CCNc1ccc2ncc(C#Cc3cncc(C(=O)Nc4ccc(CN5CCN(C)CC5)c(C(F)(F)F)c4)c3)n2n1,GI50,[1],4.29 µM
same,TGI,[1],11.1 µM
same,GI50,[2],1.77 µM
same,TGI,[2],7.87 µM
same,GI50,[3],0.181 µM
same,TGI,[3],1.85 µM
same,GI50,[4],1.15 µM
same,TGI,[4],2.9 µM
same,GI50,[5],0.226 µM
same,TGI,[5],3.42 µM
same,GI50,[6],2.69 µM
same,TGI,[6],9.93 µM
same,GI50,[7],0.477 µM
same,TGI,[7],1.95 µM
same,GI50,[8],0.463 µM
same,TGI,[8],1.9 µM
same,GI50,[9],0.955 µM
same,TGI,[9],3.98 µM
same,GI50,[10],0.844 µM
same,TGI,[10],2.95 µM
same,GI50,[11],1.11 µM
same,TGI,[11],3.05 µM
same,GI50,[12],1.47 µM
same,TGI,[12],4.36 µM
same,GI50,[13],1.04 µM
same,TGI,[13],2.46 µM
same,GI50,[56],1.01 µM
same,TGI,[56],3.43 µM
same,GI50,[14],0.247 µM
same,TGI,[14],1.5 µM
same,GI50,[15],6 µM
same,TGI,[15],12.5 µM
same,GI50,[16],5.74 µM
same,TGI,[16],12 µM
same,GI50,[17],1.53 µM
same,TGI,[17],5.54 µM
same,GI50,[18],0.13 µM
same,TGI,[18],2.42 µM
same,GI50,[19],0.644 µM
same,TGI,[19],1.47 µM
same,GI50,[20],1.77 µM
same,TGI,[20],6.58 µM
same,GI50,[21],0.406 µM
same,TGI,[21],1.18 µM
same,GI50,[22],1.81 µM
same,TGI,[22],9.35 µM
same,GI50,[57],0.672 µM
same,TGI,[57],1.62 µM
same,GI50,[23],0.713 µM
same,TGI,[23],3.66 µM
same,GI50,[24],0.185 µM
same,TGI,[24],0.982 µM
same,GI50,[25],0.936 µM
same,TGI,[25],5.46 µM
same,GI50,[26],0.154 µM
same,TGI,[26],1.03 µM
same,GI50,[27],0.169 µM
same,TGI,[27],0.541 µM
same,GI50,[28],0.652 µM
same,TGI,[28],1.44 µM
same,GI50,[29],1.33 µM
same,TGI,[29],5.38 µM
same,GI50,[30],0.205 µM
same,TGI,[30],0.862 µM
same,GI50,[31],0.564 µM
same,TGI,[31],2.13 µM
same,GI50,[32],0.746 µM
same,TGI,[32],4.51 µM
same,GI50,[33],0.95 µM
same,TGI,[33],4.01 µM
same,GI50,[34],0.45 µM
same,TGI,[34],1.92 µM
same,GI50,[35],0.743 µM
same,TGI,[35],2.39 µM
same,GI50,[36],0.589 µM
same,TGI,[36],2.24 µM
same,GI50,[37],0.734 µM
same,TGI,[37],1.89 µM
same,GI50,[38],0.612 µM
same,TGI,[38],1.81 µM
same,GI50,[39],1.87 µM
same,TGI,[39],8.04 µM
same,GI50,[40],0.0601 µM
same,TGI,[40],1.62 µM
same,GI50,[41],0.953 µM
same,TGI,[41],2.65 µM
same,GI50,[42],1 µM
same,TGI,[42],4.18 µM
same,GI50,[43],0.672 µM
same,TGI,[43],2.84 µM
same,GI50,[44],0.548 µM
same,TGI,[44],1.2 µM
same,GI50,[45],1.57 µM
same,TGI,[45],6 µM
same,GI50,[46],0.683 µM
same,TGI,[46],1.41 µM
same,GI50,[58],0.764 µM
same,TGI,[58],1.83 µM
same,GI50,[47],0.987 µM
same,TGI,[47],1.95 µM
same,GI50,[48],0.0765 µM
same,TGI,[48],0.918 µM
same,GI50,[49],0.483 µM
same,TGI,[49],3.05 µM
same,GI50,[50],9.96 µM
same,TGI,[50],47.7 µM
same,GI50,[51],0.664 µM
same,TGI,[51],3.47 µM
same,GI50,[52],0.774 µM
same,TGI,[52],2.77 µM
same,GI50,[53],1.15 µM
same,TGI,[53],7.23 µM
same,GI50,[54],3.1 µM
same,TGI,[54],9.7 µM
same,GI50,[55],0.0284 µM
same,TGI,[55],5.17 µM
